Results as given in patent US20030050249A1, “Complexes of alpha-6 integrin subunits with small peptides and methods for treating indications resulting from modulation of integrin-mediated responses by altering signal transduction” (priority 2000, published 2003).
Ends that are not written are not given here. Peptide text beside a SMILES is read from it. * marks the point of attachment. For = O=C*

Legend:
[1] = test system: normal human peripheral blood mononuclear cells; assay: Effects of HK-X on cultures of human peripheral blood mononuclear cells with and without Con A (cell cycle, viability, apoptosis); type: cell-based; conditions: versus vehicle
Experimental: The effects of addition of HK-X (as compared to a control of vehicle without peptide) to cultures of normal human peripheral blood mononuclear cells with and without the plant lectin, Con A, were also evaluated. […] However, HK-X induced apoptosis in a significant population of cells (˜30%) stimulated with Con A as determined by the presence of a sub G0/G1 population in the DNA profile. In cultures where the cells were not stimulated to enter the cell cycle (without Con A), the levels of sub G0/G1 were similar in HK-X treated and control cultures (<7%).

[2] = mouse, in vivo
[3] = HK-X administration to normal mice
[4] = test system: inflamed lung; conditions: mouse, in vivo
Experimental: In this model HK-X was administered intranasally for up to 3 months.

[5] = target: T1, FPR (Homo sapiens, UniProt P21462); conditions: compared with FMLP; cited from earlier work
T1 sequence (P21462 1-350): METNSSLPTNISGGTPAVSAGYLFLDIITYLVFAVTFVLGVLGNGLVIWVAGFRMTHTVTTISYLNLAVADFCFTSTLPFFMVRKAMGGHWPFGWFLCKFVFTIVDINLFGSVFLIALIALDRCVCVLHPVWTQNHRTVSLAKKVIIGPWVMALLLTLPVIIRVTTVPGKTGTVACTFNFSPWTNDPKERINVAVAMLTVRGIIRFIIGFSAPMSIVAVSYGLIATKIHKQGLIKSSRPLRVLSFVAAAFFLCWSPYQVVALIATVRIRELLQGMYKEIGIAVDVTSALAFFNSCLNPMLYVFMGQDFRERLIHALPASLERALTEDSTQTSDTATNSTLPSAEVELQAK

[6] = test system: rat peritoneal mast cells; assay: Binding of FITC-HK-X to rat peritoneal mast cells; conditions: freshly isolated mast cells, FIG. 3
Experimental: Rat peritoneal mast cells were isolated by infusion of 35 ml of Tyrode's Solution into the peritoneal cavity of anesthetized rats. The rats were then sacrificed by injection of an overdose of anesthetic. The peritoneal cells were harvested, placed into 15 ml centrifuge tubes. The cells were pelleted by centrifugation at 250×g for 10 min at room temperature.
Other cell types were also tested for the ability to bind FITC labeled HK-X on their cell surface.

For `CSCC[C@H](NC=O)C(=O)N[C@@H](CC(C)C)C(=O)N[C@@H](Cc1ccccc1)C(=O)N[C@@H](Cc1ccccc1)C(=O)O` [HK-X, f-Met-Leu-Phe-Phe] (For-MLFF-OH), the cell viability [1] was “did not effect cell viability”, the toxicity [2] was “no discernable toxicity” and the “distribution or numbers of nucleated cells of the peripheral blood” value ([3]; 10 μg to 1000 μg per adult mouse) was “no alterations”. For the same compound, the “numbers of antibody forming cells (PFC), IgM and IgG” value ([3]; mice immunized with sheep red cells, HK-X prior to and after immunization) was “no alteration”, the “Liver and kidney function” value ([3]; normal mice) was “unaffected” and the “production of required cytokines” value ([3]; normal mice) was “did not down regulate”. For the same compound, the “proliferation and differentiation of hematopoietic precursors of neutrophils, basophils, monocytes and lymphocytes” value ([3]; normal mice) was “did not negatively affect” and the “pathological changes in the alveoli, bronchi or vessels” value [4] was “no pathological changes”.
For “Met-Met-Trp-Leu-Leu (MMWLL; printed: Met-Met-Trp-Leu-Leu)”, the neutrophil function activity [5] is given as “comparable in neutrophil function activity to FMLP”.
For “FITC-HK-X: fluoresceinated HK-X (f-Met-Leu-Phe-Phe) (MLFF; not fully specified; also: FITC label, site not given here)”, the “numbers of FITC-HK-X bound” value [6] was “roughly equivalent to that of human eosinophils”.
